The values below come from patent US20200171005A9, “Heterobifunctional Pan-Selectin Antagonists Having a Triazole Linker” (GlycoMimetics, Inc., priority 2015, published 2020).

The target in assay [1] is T1, E-selectin (E-selectinLEC2 construct) (Homo sapiens, UniProt P16581).
T1 construct: a construct consisting of the lectin domain, the EGF like domain, and the first two short consensus repeats (E-selectinLEC2)
T1 sequence (P16581 22-301 limits assumed): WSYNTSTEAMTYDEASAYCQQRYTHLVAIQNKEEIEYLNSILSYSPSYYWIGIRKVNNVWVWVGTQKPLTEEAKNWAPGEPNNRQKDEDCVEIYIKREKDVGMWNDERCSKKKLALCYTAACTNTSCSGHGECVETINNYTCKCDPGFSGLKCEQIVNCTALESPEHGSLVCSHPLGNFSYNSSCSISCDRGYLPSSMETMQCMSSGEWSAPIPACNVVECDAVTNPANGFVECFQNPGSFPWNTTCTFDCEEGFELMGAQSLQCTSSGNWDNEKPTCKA
In words: Microscale Thermophoresis (MST) affinity assay for E-selectin. The conditions noted are these: labeled E-selectinLEC2, HEPES buffer pH 7.4, 1 mM CaCl2, 25° C.; read-out: Binding Affinity (KD) to E-Selectin Determined by MST. Here is the method:
For E-selectin, a construct consisting of the lectin domain, the EGF like domain, and the first two short consensus repeats (E-selectinLEC2) was labeled using the amine reactive protein labeling kit BLUE-NHS from NanoTemper Technologies GmbH (Munich, Germany).
The Microscale Thermophoresis (MST) experiments were carried out in a HEPES buffer adjusted to pH 7.4 containing 150 mM NaCl, 1 mM CaCl2 and 0.05% Tween 20 at a temperature of 25° C. with 50% LED power, 50% laser power, laser on time of 30 seconds, and laser off time of 5 seconds with standard treated capillaries. A fixed concentration of the labeled E-selectinLEC2 protein was incubated for 20 minutes with a 15-datapoint […] 1:1 dilution of ligand starting about 30 times above the expected KD. The observed data points were fitted using the single-site binding function of Alan Cooper, Tutorial Chemistry Texts, Vol 16: Biophysical Chemistry; Royal Society of Chemistry: Cambridge, 2004.
In general terms: In MST a laser heats a spot of the sample, and binding alters the fluorescence response.

Assay [2] has as its target T2, P-selectin (P-selectin/IgG) (Homo sapiens, UniProt P16109).
T2 sequence (P16109 42-771): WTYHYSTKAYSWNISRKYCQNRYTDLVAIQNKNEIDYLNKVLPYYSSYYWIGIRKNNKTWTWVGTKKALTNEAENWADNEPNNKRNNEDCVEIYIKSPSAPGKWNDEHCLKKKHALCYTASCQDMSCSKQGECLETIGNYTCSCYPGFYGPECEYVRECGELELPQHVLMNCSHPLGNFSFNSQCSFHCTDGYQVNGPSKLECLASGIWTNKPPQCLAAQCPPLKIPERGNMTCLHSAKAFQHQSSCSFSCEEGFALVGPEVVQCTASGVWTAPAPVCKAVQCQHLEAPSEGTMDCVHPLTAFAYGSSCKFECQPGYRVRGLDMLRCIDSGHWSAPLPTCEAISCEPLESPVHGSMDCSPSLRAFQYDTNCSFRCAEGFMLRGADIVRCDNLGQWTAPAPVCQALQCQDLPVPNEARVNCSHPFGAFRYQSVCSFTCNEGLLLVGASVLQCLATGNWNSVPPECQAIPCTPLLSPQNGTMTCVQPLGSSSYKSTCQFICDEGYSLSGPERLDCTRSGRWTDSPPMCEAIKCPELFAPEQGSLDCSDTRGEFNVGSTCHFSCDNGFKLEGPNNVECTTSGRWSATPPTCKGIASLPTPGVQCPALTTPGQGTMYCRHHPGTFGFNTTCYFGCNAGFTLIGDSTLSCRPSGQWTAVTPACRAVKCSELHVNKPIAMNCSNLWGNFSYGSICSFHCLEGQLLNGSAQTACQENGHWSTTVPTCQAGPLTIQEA
The assay is described as follows: Cell-free P-selectin ligand competitive binding assay (sLe^a-PAA). The conditions noted are these: P-selectin/IgG coated plate, sLe^a-PAA streptavidin-POD complex, 25° C., 2 hours; read-out: IC50, Binding Affinity to P-Selectin Determined by Competitive Binding Assay. The protocol:
The cell-free P-selectin ligand binding assay was adapted from Weitz-Schmidt et al (G. Weitz-Schmidt, D. Stokmaier, G. Scheel, N. E. Nifant'ev, A. B. Tuzikov, N. V. Bovin, Anal Biochem 1996, 238, 184-190). A MaxiSorp 96-well flat bottom microtiter plate purchased from Nalge Nunc International (Penfield, N.Y., USA) was coated with P-selectin/IgG by incubation with 100 μL/well of the purified protein at a concentration of 3 μg/ml in 10 mM HEPES-NaOH pH 7.4, 150 mM NaCl, 1 mM CaCl2 (HAB-Ca^+). After an overnight incubation at 4° C., the plate was washed three times with HAB-Ca^+ followed by a 2 hour incubation with 200 μL/well of a solution of 3% BSA in HAB-Ca^+ at room temperature to block nonspecific binding. During this incubation, inhibitory test compounds, diluted in HAB-Ca^+, were titrated by a twofold serial and mixed with an equal volume of 0.2 μg/ml of a preformed complex of a biotinylated sialyl Lewis' polyacrylamide polymer (sLe^a-PAA) purchased form GlycoTech Inc. (Gaithsburg, Md., USA) and horseradish peroxidase-labeled streptavidin (streptavidin-POD) purchased from Roche (Rotkreuz, Switzerland). After blocking, the microtiter plate was washed three times with HAB-Ca^+ and 100 μL/well of the inhibitor dilution series premixed with sLe^a-PAA streptavidin-POD complex was transferred to the different wells of the plate. The binding reaction was allowed to proceed at 25° C. After 2 hours, the plate was washed twice with HAB-Ca^+, and 100 μL/well of ABTS (2,2′-azino-bis[3-ethylbenzthiazoline-6-sulfonic acid]) substrate reagent purchased from Invitrogen (Paisley, UK) was added to each well. Adding 100 μL/well of 2% oxalic acid stopped the colorimetric reaction was after 5 minutes. The optical density was determined at […] (SpectraMax). The concentration of antagonist required to inhibit binding by 50% was determined and is reported as the IC50 value.

Consider `CCC1CC(C(=O)NCCCc2cn(CCC(=O)Nc3cc(S(=O)(=O)O)cc4cc(S(=O)(=O)O)cc(S(=O)(=O)O)c34)nn2)CC(OC2OC(CO)C(O)C(OC(CC3CCCCC3)C(=O)O)C2OC(=O)c2ccccc2)C1OC1OC(C)C(O)C(O)C1O` (centres unmarked) [Compound 15a], for which the Kd (in general, the free concentration of one partner at which half of the binding sites on the other are occupied at equilibrium, for simple one-to-one binding) in assay [1] came to 1.5 µM. Further, the IC50 – broadly, the midpoint of a concentration-inhibition curve – in assay [2] came out at 94 µM.
The matching figures for `CCC1CC(C(=O)NCCCc2cn(CCCC(=O)Nc3cc(S(=O)(=O)O)cc4cc(S(=O)(=O)O)cc(S(=O)(=O)O)c34)nn2)CC(OC2OC(CO)C(O)C(OC(CC3CCCCC3)C(=O)O)C2OC(=O)c2ccccc2)C1OC1OC(C)C(O)C(O)C1O` (centres unmarked) [Compound 15b]: 0.97 µM and 82 µM.
Take `CCC1CC(C(=O)NCCCc2cn(CCCCC(=O)Nc3cc(S(=O)(=O)O)cc4cc(S(=O)(=O)O)cc(S(=O)(=O)O)c34)nn2)CC(OC2OC(CO)C(O)C(OC(CC3CCCCC3)C(=O)O)C2OC(=O)c2ccccc2)C1OC1OC(C)C(O)C(O)C1O` (centres unmarked) [Compound 15c]: in assay [1], the Kd was determined as 1.2 µM. Besides, in assay [2], the IC50 was 210 µM.
`CC1CC(C(=O)NCCCc2cn(CCC(=O)Nc3cc(S(=O)(=O)O)cc4cc(S(=O)(=O)O)cc(S(=O)(=O)O)c34)nn2)CC(OC2OC(CO)C(O)C(OC(CC3CCCCC3)C(=O)O)C2OC(=O)c2ccccc2)C1OC1OC(C)C(O)C(O)C1O` (centres unmarked) [Compound 17]: the Kd in assay [1] was 3 µM. In assay [2], the IC50 worked out at 185 µM.
